Results: patent US9732070B2, “Protein kinase C inhibitors and uses thereof” (Rigel Pharmaceuticals, Inc., priority 2009, dated 2017)

system: Human primary T cells; assay: IL-2 ELISA, human primary T cell, anti-CD3+CD28 stimulation; assay type: cell-based; conditions: IL-2 quantified by ELISA; human primary T cells stimulated with αCD3 and αCD28, 24 hours
Procedure: Human primary T cell isolation and culture: Human primary T cells were prepared as follows. Whole blood was obtained from a healthy volunteer, mixed 1:1 with PBS, layered on to Ficoll Hypaque (Amersham Pharmacia Biotech, Piscataway, N.J., Catalog #17-1440-03) in 2:1 blood/PBS:ficoll ratio and centrifuged for 30 minutes at 4° C. at 1750 rpm. The cells at the serum: ficoll interface were recovered and washed twice with 5 volumes of PBS. These freshly isolated human peripheral blood mononuclear cells were cultured in Yssel's medium containing 40 U/mL IL2 in a flask pre-coated with 1 μg/mL αCD3 and 5 μg/mL αCD28 (Anti-Human CD3, BD Pharmingen Catalog #555336, Anti-Human CD28, Beckman Coulter Catalog #IM1376). The cells were stimulated for 3-4 days, then transferred to a fresh flask and maintained in RPMI (RPMI-1640 with L-Glutamine; Mediatech, Inc., Herndon Va., cat. #10-040-CM) with 10% FBS and 40 U/mL IL-2. The primary T-cells were then washed twice with PBS to remove the IL-2.
Primary T cell stimulation and IL2 ELISA: Human primary T cells (100,000 cells per well) were pre-incubated with or without test compound in Yssel's medium for 1 hour at 37° C. Cells were then stimulated by transferring them to round-bottom 96-well plates pre-coated with 1 μg/ml αCD3 and 5 μg/ml αCD28. For counter assay, cells were instead stimulated by adding 8× stock solutions of PMA and ionomycin in Yssels (for final concentrations of 0.5 ng/ml PMA and 0.1 uM ionomycin, both from Calbiochem). Cells were incubated at 37° C. for 24 hours before 100 μL supernatants were harvested for quantification of IL-2 by ELISA using Human IL-2 Duoset ELISA Kit from R and D Systems, Cat. # DY202E.

Row | IC50 [nM] | Compound
1 | < 500 | CC(C)Oc1c(-n2nnn(C)c2=O)cc(Nc2ncc(F)c(NC3CC(C)(C)NC(C)(C)C3)n2)cc1C(F)(F)F [I-51, N2-(4-isopropoxy-3-(4-methyl-4,5-dihysro-5-oxo-1H-tetrazol-1-yl)-5-trifluoromethylphenyl)-5-fluoro-N4-(2,2,6,6-tetramethylpiperidin-4-yl)pyrimidine-2,4-diamine]
2 | < 500 | CC(C)Oc1c(-n2nnn(C)c2=O)cc(Nc2ncc(F)c(NC3CC(C)(C)N(C)C(C)(C)C3)n2)cc1C(F)(F)F [I-52, N2-(4-isopropoxy-3-(4-methyl-4,5-dihysro-5-oxo-1H-tetrazol-1-yl)-5-trifluoromethylphenyl)-5-fluoro-N4-(1,2,2,6,6-pentamethylpiperidin-4-yl)pyrimidine-2,4-diamine]

same assay, conditions: T-cell; IL-2 quantified by ELISA; human primary T cells stimulated with αCD3 and αCD28, 24 hours

Row | IC50 [nM] | Compound
3 | < 500 | Cn1nnn(-c2cc(Nc3ncc(C#N)c(NC4CC(C)(C)NC(C)(C)C4)n3)cc(C(F)(F)F)c2C2CC2)c1=O [I-41, 5-cyano-N2-{4-cyclopropyl-5-trifluoromethyl-[3-(4-methyl)-1,2,3,4-tetrazol-5-one-1-yl]}phenyl-N4-(2,2,6,6-tetramethylpiperidin-4-yl)-2,4-pyrimidinediamine]
4 | < 500 | CN1C(C)(C)CC(Nc2nc(Nc3cc(-n4nnn(C)c4=O)c(C4CC4)c(C(F)(F)F)c3)ncc2C#N)CC1(C)C [I-42, 5-cyano-N2-{4-cyclopropyl-5-trifluoromethyl-[3-(4-methyl)-1,2,3,4-tetrazol-5-one-1-yl]}phenyl-N4-(1,2,2,6,6-pentamethylpiperidin-4-yl)-2,4-pyrimidinediamine]
5 | < 500 | Cn1nnn(-c2cc(Nc3ncc(F)c(NC4CC(C)(C)NC(C)(C)C4)n3)cc(C3CC3)c2F)c1=O [I-43, N2-{5-cyclopropyl-4-fluoro-[3-(4-methyl)-1,2,3,4-tetrazol-5-one-1-yl]}phenyl-5-fluoro-N4-(2,2,6,6-tetramethylpiperidin-4-yl)-2,4-pyrimidinediamine]
6 | < 500 | Cn1nnn(-c2cc(Nc3ncc(C#N)c(NC4CC(C)(C)NC(C)(C)C4)n3)cc(C3CC3)c2F)c1=O [I-44, 5-cyano-N2-{5-cyclopropyl-4-fluoro-[3-(4-methyl)-1,2,3,4-tetrazol-5-one-1-yl]}phenyl-N4-(2,2,6,6-tetramethylpiperidin-4-yl)-2,4-pyrimidinediamine]
7 | < 500 | Cc1cc(Nc2ncc(F)c(NC3CC(C)(C)N(C)C(C)(C)C3)n2)cc(-n2nnn(C)c2=O)c1C [I-45, N2-(4,5-dimethyl-3-(4-methyl-4,5-dihydro-5-oxo-1H-tetrazol-1-yl)phenyl)-5-fluoro-N4-(1,2,2,6,6-pentamethylpiperidin-4-yl)pyrimidine-2,4-diamine]
8 | < 500 | Cc1cc(Nc2ncc(F)c(NC3CC(C)(C)NC(C)(C)C3)n2)cc(-n2nnn(C)c2=O)c1C [I-46, N2-(4,5-dimethyl-3-(4-methyl-4,5-dihydro-5-oxo-1H-tetrazol-1-yl)phenyl)-5-fluoro-N4-(2,2,6,6-tetramethylpiperidin-4-yl)pyrimidine-2,4-diamine]
9 | < 500 | CN1C(C)(C)CC(Nc2nc(Nc3cc(-n4nnn(C)c4=O)cc(C(F)(F)F)c3)ncc2F)CC1(C)C [I-47, N2-(3-(4-methyl-4,5-dihydro-5-oxo-1H-tetrazol-1-yl)-5-trifluoromethylphenyl)-5-fluoro-N4-(1,2,2,6,6-pentamethylpiperidin-4-yl)pyrimidine-2,4-diamine]
10 | < 500 | Cn1nnn(-c2cc(Nc3ncc(F)c(NC4CC(C)(C)NC(C)(C)C4)n3)cc(C(F)(F)F)c2)c1=O [I-48, N2-(3-(4-methyl-4,5-dihydro-5-oso-1H-tetrazol-1-yl)-5-trifluoromethylphenyl)-5-fluoro-N4-(2,2,6,6-tetramethylpiperidin-4-yl)pyrimidine-2,5-diamine]
11 | < 500 | CN1C(C)(C)CC(Nc2nc(Nc3cc(C#N)cc(-n4nnn(C)c4=O)c3)ncc2F)CC1(C)C [I-49]
12 | < 500 | Cn1nnn(-c2cc(C#N)cc(Nc3ncc(F)c(NC4CC(C)(C)NC(C)(C)C4)n3)c2)c1=O [I-50, N2-(5-cyano-3-(4-methyl-4,5-dihysro-5-oxo-1H-tetrazol-1-yl)phenyl)-5-fluoro-N4-(2,2,6,6-tetramethylpiperidin-4-yl)pyrimidine-2,4-diamine]
13 | < 500 | Cc1c(-n2nnn(C)c2=O)cc(Nc2ncc(F)c(NC3CC(C)(C)NC(C)(C)C3)n2)cc1C(F)(F)F [I-53, N2-(4-methyl-3-(4-methyl-4,5-dihydro-5-oxo-1H-tetrazol-1-yl)-5-trifluoromethylphenyl)-5-fluoro-N4-(2,2,6,6-tetramethylpiperidin-4-yl)pyrimidine-2,5-diamine]
14 | < 500 | Cc1c(-n2nnn(C)c2=O)cc(Nc2ncc(F)c(NC3CC(C)(C)N(C)C(C)(C)C3)n2)cc1C(F)(F)F [I-54, N2-(4-methyl-3-(4-methyl-4,5-dihysro-5-oxo-1H-tetrazol-1-yl)-5-trifluoromethylphenyl)-5-fluoro-N4-(1,2,2,6,6-pentamethylpiperidin-4-yl)pyrimidine-2,4-diamine]
15 | < 500 | Cc1c(Cl)cc(Nc2ncc(F)c(NC3CC(C)(C)NC(C)(C)C3)n2)cc1-n1nnn(C)c1=O [I-55, N2-(5-chloro-4-methyl-3-(4-methyl-4,5-dihysro-5-oxo-1H-tetrazol-1-yl)phenyl)-5-fluoro-N4-(2,2,6,6-tetramethylpiperidin-4-yl)pyrimidine-2,4-diamine]
16 | < 500 | Cc1c(Cl)cc(Nc2ncc(F)c(NC3CC(C)(C)N(C)C(C)(C)C3)n2)cc1-n1nnn(C)c1=O [I-56, N2-(5-chloro-4-methyl-3-(4-methyl-4,5-dihydro-5-oxo-1H-tetrazol-1-yl)phenyl)-5-fluoro-N4-(1,2,2,6,6-pentamethylpiperidin-4-yl)pyrimidine-2,4-diamine]
17 | < 500 | Cn1nnn(-c2cc(Nc3ncc(C(N)=O)c(NC4CC(C)(C)NC(C)(C)C4)n3)cc(F)c2C2CC2)c1=O [I-57, N2-(4-cyclopropyl-5-fluoro-3-(4-methyl-4,5-dihydro-5-oxo-1H-tetrazol-1-yl)phenyl)-N4-(2,2,6,6-tetramethylpiperidin-4-yl)pyrimidine-2,4-diamino-5-carboxyamide]
18 | < 500 | Cn1nnn(-c2cc(Nc3ncc(F)c(NC4CC(C)(C)NC(C)(C)C4)n3)ccc2C#N)c1=O [I-58, N2-(4-cyano-3-(4-methyl-4,5-dihydro-5-oxo-1H-tetrazol-1-yl)phenyl)-5-fluoro-N4-(2,2,6,6-tetramethylpiperidin-4-yl)pyrimidine-2,4-diamine]
19 | < 500 | Cn1nnn(-c2cc(Nc3ncc(F)c(NC4CC(C)(C)NC(C)(C)C4)n3)cc(F)c2C2CC2)c1=O [I-59, 1-(2-cyclopropyl-3-fluoro-5-(5-fluoro-4-(2,2,6,6-tetramethylpiperidin-4-ylamino)pyrimidin-2-ylamino)phenyl)-4-methyl-1H-tetrazol-5(4H)-one]
20 | < 500 | COC(=O)c1cc(Nc2ncc(F)c(NC3CC(C)(C)NC(C)(C)C3)n2)cc(-n2nnn(C)c2=O)c1C [I-60, Methyl 5-((5-fluoro-4-((2,2,6,6-tetramethylpiperidin-4-yl)amino)-2-pyrimidinyl)amino)-2-methyl-3-(4-methyl-4,5-dihysro-5-oxo-1H-tetrazol-1-yl)benzoate]
21 | 3000 to 25000 | Cc1c(C(=O)O)cc(Nc2ncc(F)c(NC3CC(C)(C)NC(C)(C)C3)n2)cc1-n1nnn(C)c1=O [I-61]
22 | < 500 | Cn1nnn(-c2cc(Nc3ncc(C#N)c(NC4CC(C)(C)NC(C)(C)C4)n3)cc(F)c2C2CC2)c1=O [I-62, N2-(4-cyclopropyl-5-fluoro-3-(4-methyl-4,5-dihydro-5-oxo-1H-tetrazol-1-yl)phenyl)-N4-(2,2,6,6-tetramethylpiperidin-4-yl)pyrimidine-2,4-diamino-5-carbonitrile]
23 | < 500 | COC(=O)c1cc(Nc2ncc(F)c(NC3CC(C)(C)N(C)C(C)(C)C3)n2)cc(-n2nnn(C)c2=O)c1C [I-63, Methyl 5-((5-fluoro-4-((1,2,2,6,6-pentamethylpiperidin-4-yl)amino)-2-pyrimidinyl)amino)-2-methyl-3-(4-methyl-4,5-dihysro-5-oxo-1H-tetrazol-1-yl)benzoate]
24 | < 500 | CNC(=O)c1cc(Nc2ncc(F)c(NC3CC(C)(C)N(C)C(C)(C)C3)n2)cc(-n2nnn(C)c2=O)c1C [I-64, 5-(5-fluoro-4-(1,2,2,6,6-pentamethylpiperidin-4-ylamino)pyrimidin-2-ylamino)-N,2-dimethyl-3-(4-methyl-5-oxo-4,5-dihydro-1H-tetrazol-1-yl)benzamide]
25 | 3000 to 25000 | Cc1c(C(=O)O)cc(Nc2ncc(F)c(NC3CC(C)(C)N(C)C(C)(C)C3)n2)cc1-n1nnn(C)c1=O [I-65, 5-((5-fluoro-4-((1,2,2,6,6-pentamethylpiperidin-4-yl)amino)-2-pyrimidinyl)amino)-2-methyl-3-(4-methyl-4,5-dihydro-5-oxo-1H-tetrazol-1-yl)benzoic Acid]
